According to US11319299B2, “Substituted carboxamides as inhibitors of WDR5 protein-protein binding” (PROPELLON THERAPEUTICS INC., priority 2016, dated 2022):

What follows are compounds tested against WDR5 (Homo sapiens (Human), UniProt P61964) (assay: Surface Plasmon Resonance (SPR) assay, KD and residence time). Conditions: surface plasmon resonance (SPR) assay; read-out: WDR5 binding affinity (KD).
Type: binding
`CC(=O)N1CC=C(c2cc(NC(=O)c3c[nH]c(=O)cc3C(F)(F)F)c(N3C[C@@H](C)N(C)[C@@H](C)C3)cc2F)CC1` [Example 252, N-[5-(1-acetyl-3,6-dihydro-2H-pyridin-4-yl)-4-fluoro-2-[(3R,5S)-3,4,5-trimethylpiperazin-1-yl]phenyl]-6-oxo-4-(trifluoromethyl)-H-pyridine-3-carboxamide] showed a Kd of 2.79 nM.
For `CCOC(=O)N1CC=C(c2cc(NC(=O)c3c[nH]c(=O)cc3C(F)(F)F)c(N3C[C@@H](C)N(C)[C@@H](C)C3)cc2F)CC1` [Example 253, ethyl 4-[2-fluoro-5-[[6-oxo-4-(trifluoromethyl)-1H-pyridine-3-carbonyl]amino]-4-[(3R,5S)-3,4,5-trimethylpiperazin-1-yl]phenyl]-3,6-dihydro-2H-pyridine-1-carboxylate], the Kd was 3.3 nM.
With `CC(C)COC(=O)N1CC=C(c2cc(NC(=O)c3c[nH]c(=O)cc3C(F)(F)F)c(N3C[C@@H](C)N(C)[C@@H](C)C3)cc2F)CC1` [Example 254, 2-methylpropyl 4-[2-fluoro-5-[[6-oxo-4-(trifluoromethyl)-1H-pyridine-3-carbonyl]amino]-4-[(3R,5S)-3,4,5-trimethylpiperazin-1-yl]phenyl]-3,6-dihydro-2H-pyridine-1-carboxylate] the Kd was 3.34 nM.
Compound `C[C@@H]1CN(c2cc(F)c(C3=CCN(C(=O)CC(C)(C)C)CC3)cc2NC(=O)c2c[nH]c(=O)cc2C(F)(F)F)C[C@H](C)N1C` [Example 255, N-[5-[1-(3,3-dimethylbutanoyl)-3,6-dihydro-2H-pyridin-4-yl]-4-fluoro-2-[(3R,5S)-3,4,5-trimethylpiperazin-1-yl]phenyl]-6-oxo-4-(trifluoromethyl)-1H-pyridine-3-carboxamide] has a Kd of 1.98 nM.
Compound `C[C@@H]1CN(c2cc(F)c(C3CCN(C(=O)CC(C)(C)C)CC3)cc2NC(=O)c2c[nH]c(=O)cc2C(F)(F)F)C[C@H](C)N1C` [Example 256, N-[5-[1-(3,3-dimethylbutanoyl)piperidin-4-yl]-4-fluoro-2-[(3R,5S)-3,4,5-trimethylpiperazin-1-yl]phenyl]-6-oxo-4-(trifluoromethyl)-1H-pyridine-3-carboxamide] has a Kd of 11.8 nM.
`C[C@@H]1CN(c2cc(F)c(-c3ccc(F)nc3)cc2NC(=O)c2c[nH]c(=O)cc2C(F)(F)F)C[C@H](C)N1C` [Example 257, N-[4-fluoro-5-(6-fluoropyridin-3-yl)-2-[(3R,5S)-3,4,5-trimethylpiperazin-1-yl]phenyl]-6-oxo-4-(trifluoromethyl)-1H-pyridine-3-carboxamide] was tested, and the Kd was 1.7 nM.
With `CN(C)C1CCN(c2cc(F)c(-c3cnc(N4CCOCC4)nc3)cc2NC(=O)c2c[nH]c(=O)cc2C(F)(F)F)CC1` [Example 258, N-[2-[4-(dimethylamino)piperidin-1-yl]-4-fluoro-5-(2-morpholin-4-ylpyrimidin-5-yl)phenyl]-6-oxo-4-(trifluoromethyl)-1H-pyridine-3-carboxamide] the Kd was 66.1 nM.
Compound `C[C@@H]1CN(c2cc(F)c(-c3ccc(N4CCCC4)nc3)cc2NC(=O)c2c[nH]c(=O)cc2C(F)(F)F)C[C@H](C)N1C` [Example 261, N-[4-fluoro-5-(6-pyrrolidin-1-ylpyridin-3-yl)-2-[(3R,5S)-3,4,5-trimethylpiperazin-1-yl]phenyl]-6-oxo-4-(trifluoromethyl)-1H-pyridine-3-carboxamide] has a Kd of 1.64 nM.
Compound `COc1cc(Cl)cc(C(=O)Nc2cc(-c3cnc(N4CCOCC4)nc3)c(F)cc2N2C[C@@H](C)N(C)[C@@H](C)C2)c1` [Example 265, 3-chloro-N-[4-fluoro-5-(2-morpholin-4-ylpyrimidin-5-yl)-2-[(3R,5S)-3,4,5-trimethylpiperazin-1-yl]phenyl]-5-methoxybenzamide] has a Kd of 28.3 nM.
`C[C@@H]1CN(c2cc(F)c(-c3cnc(N4CCOCC4)nc3)cc2NC(=O)c2ccc(F)c(Cl)c2F)C[C@H](C)N1C` [Example 266, 3-chloro-2,4-difluoro-N-[4-fluoro-5-(2-morpholin-4-ylpyrimidin-5-yl)-2-[(3R,5S)-3,4,5-trimethylpiperazin-1-yl]phenyl]benzamide] showed a Kd of 13.7 nM.
